Earlier results in patent US20230070788A1, “METHOD FOR DYEING KERATIN MATERIAL, COMPRISING THE USE OF AN ORGANIC C1-C6 ALKOXY SILANE AND A COPOLYMER OF (METH) ACRYLIC ACID AND MALEIC ACID (ANHYDRIDE)” (Henkel AG & Co. KGaA, priority 2019, published 2023).

Settings: for solubility in water: 25° C.

Molecule	solubility in water	solubility in water (in words) (water at 25° C.)
O=S(=O)([O-])c1ccc(N=Nc2c(O)ccc3ccccc23)cc1.[Na+] [Acid Orange 7, sodium salt of 4-[(2-hydroxy-1-naphthyl)azo]benzenesulfonate]	more than 7 g/L	–
Nc1cc(S(=O)(=O)[O-])cc2cc(S(=O)(=O)[O-])c(N=Nc3ccccc3)c(O)c12.[Na+].[Na+] [Acid Red 33, disodium salt of 5-amino-4-hydroxy-3-(phenylazo)-naphthalene-2,7-disulphonate]	2.5 mg/mL	–
O=C([O-])c1c(Cl)c(Cl)c(Cl)c(Cl)c1-c1c2c(Br)cc(=O)c(Br)c-2oc2c(Br)c(O)cc(Br)c12.O=C([O-])c1c(Cl)c(Cl)c(Cl)c(Cl)c1-c1c2c(Br)cc(=O)c(Br)c-2oc2c(Br)c(O)cc(Br)c12.[Na+].[Na+] [Acid Red 92, disodium salt of 3,4,5,6-tetrachloro-2-(1,4,5,8-tetrabromo-6-hydroxy-3-oxoxanthen-9-yl)benzoic acid]	greater than 10 g/L	–
O=C([O-])C1=NN(c2ccc(S(=O)(=O)[O-])cc2)C(=O)C1N=Nc1ccc(S(=O)(=O)[O-])cc1.[Na+].[Na+].[Na+] (centres unmarked) [Acid Yellow 23, trisodium salt of 4,5-dihydro-5-oxo-1-(4-sulfophenyl)-4-((4-sulfophenyl)azo)-1H-pyrazole-3-carboxylic acid]	–	readily soluble
mixture of the sodium salts of mono- and disulfonic acids of 2-(2-quinolyl)-1H-indene-1,3(2H)-dione [Acid Yellow 3]	20 mg/mL	–
